Laboratory results from patent US11680078B2, “Anticancer compounds” (GODAVARI BIOREFINERIES LIMITED, priority 2017, dated 2023).
Where two headings read alike, the source gives them in different places.

Key:
MCF7 = assay: MTT antiproliferative assay, MCF7; assay type: cell-based; conditions: Homo sapiens, MCF7; MCF-7 breast cell line, 48 hrs drug incubation
Protocol: (§1) MTT assay is a simple and sensitive assay where, metabolic reducing activity of the cells is measured. The increase of this activity in time is taken as a parameter of cell growth. If treatment with a drug impairs this increase, the action may be a consequence of growth inhibition, cell killing or both. The compounds of Formula V to XIV of the present invention, standard cytotoxic drug (e.g. Cisplatin) were tested at different concentrations (1, 0.1, 0.01, 0.001 mM) using breast and prostate cancer cell lines. All cell lines were cultured in a 37° C. incubator with a 5% CO2 environment. Compounds were dissolved in DMSO with a concentration of 0.1M (stock solution). Cells were seeded into 96-well plates at suitable plating efficiency.
(§2) Following Plating Efficiencies were Standardized for MTT Assay:
(§3) The MTT procedure followed was as follows. Briefly, the cells were plated in 96 well plate as per predetermined plating efficiency (Table 1) The plates were then incubated for 24 hrs in 5% CO2 atmosphere at 37° C. Appropriate concentrations of the drugs were then added to the plate and further incubation was carried out for 48 hrs (in 5% CO2 atmosphere at 37° C.). The assay plate was then centrifuged twice at 3000 rpm for 3 mins and supernatant was then discarded. 100 ul of MTT solution (0.5 mg/ml) was then added to each well of the plate and it was further incubated for 4 hrs (in 5% CO2 atmosphere at 37° C.) Following 4 hr incubation, the plate was then centrifuged twice, and supernatant was aspirated off very carefully. 200 ul of DMSO was then added to each well to solubilize. MTT crystals and mixed well by shaking the plate. XY graph of log Percent viability was then plotted against log drug concentration. […] (Drug concentration inhibiting the 50% of cell population) was then calculated by regression analysis.

MDAMB231 [1] = assay: MTT antiproliferative assay, MDAMB231; assay type: cell-based; conditions: Homo sapiens, MDA-MB-231; MDAMB231 breast cell line, 48 hrs drug incubation
Protocol: as §1, §2, §3

PC3 [2] = assay: MTT antiproliferative assay, PC3; assay type: cell-based; conditions: Homo sapiens, PC-3; PC3 prostate cell line, 48 hrs drug incubation
Protocol: as §1, §2, §3

DU145 = assay: MTT antiproliferative assay, DU145; assay type: cell-based; conditions: Homo sapiens, DU-145; DU145 prostate cell line, 48 hrs drug incubation
Protocol: as §1, §2, §3

MDAMB231 [3] = assay: Soft Agar colony-formation Assay, MDAMB231; assay type: cell-based; conditions: Homo sapiens, MDA-MB-231, 168 h; MDAMB231 breast cell line, 1 week
Protocol: (§4) The Soft Agar Colony-formation Assay is an anchorage-independent growth assay in soft agar, which is one of the most stringent assays for detecting malignant transformation of cells. For this assay, malignant cells are cultured with appropriate controls in soft agar medium for 1-2 weeks. Following this incubation period, formed colonies can either be analyzed morphologically using cell stain and quantifying the number of colonies formed.
(§5) Briefly, for Soft Agar Assay a mixture of 50 ul of 2× medium (taken appropriately as per cell line) and 50 ul of 1.2% Bacto Agar were plated on to each well of 96 well micro titer assay plate. 10 ul of cells (Of specific plating efficiency pre-standardized for respective cell line) were mixed with 20 ul of 2× medium and 30 ul of 0.8% of Bacto Agar and 1.6 ul of drug (of appropriate concentration) in a vial and transferred to the solidified pre-layers of the assay plates. The cells were then allowed to grow and form colonies at 37° C. and 5% CO2 for 1 week. An intermittent feeding with 50 ul of appropriate 2× medium was performed after 3 days of experimental set up. 16 ul of Alamar Blue (1.5 mg/ml) was then added to all the wells to quantify the developed colonies. The plates were incubated for 24 hrs at 37° C. Absorbance was then measured at 630 nm. XY graph of log Percent viability was then plotted against log drug concentration. IC50 (Drug concentration inhibiting the 50% of cell population) was then calculated by regression analysis.
(§6) Following Plating Efficiencies Were Standardized for Soft Agar Assay: […]

PC3 [4] = assay: Soft Agar colony-formation Assay, PC3; assay type: cell-based; conditions: Homo sapiens, PC-3, 168 h; PC3 prostate cell line, 1 week
Protocol: as §4, §5, §6

spheres of MDAMB231 = assay: In vitro sphere-forming assay, MDAMB231 in Mammosphere media; assay type: cell-based; conditions: 2000 cells/well, n = 6 ± S.D
Description: (§7) Sphere assay measures the ability of Cancer Stein Cells to form spheres in specially designed serum-free medium. We have used this assay to measure the killing efficiency of the test compounds as compared to the standard chemotherapeutic drug, Cisplatin.
(§8) Materials and Reagents:50× B27 Supplement (Life Technologies, Invitrogen, Catalog No.: 17502-044), Fibroblast Growth Factor (FGF) (Sigma-Aldrich, Catlog No.: F029125), Epidermal Growth Factor (EGF) (Sigma-Aldrich, Catlog No.: E9644), Insulin (Sigma, Catlog No.: 19278), Dulbecco's Modified Eagle Medium/F12 (HiMedia Catlog No.: AL139-6), Dulbecco's Phosphate Buffered Saline (HiMedia Catlog No.: TL1006), Trypan Blue (TC193), Prostate Epithelial Media (LONZA, Catlog No.: CC-3166) MEGM (LONZA, Catlog No.: CC-3051), Heparin (Sigma, Catlog No.: H3393), Penstrep (HiMedia, Catlog No.: A002)
Mammosphere Media Preparation (For 100 mL): 1 g methyl cellulose autoclaved with magnetic stirrer Plain media (MEBM), 100 mL added and dissolved under magnetic stirring. After complete dissolution, add: FGF-80 μL, EGF-40 μL, Penstrep-1 mL, Heparin-400 μL.
(§9) Procedure: —The cells were trypsinised and made into single-cell suspension by passing through cell strainers ([…], respectively), The cells were diluted at the concentration of 2000 cells/100 μL and suspended in either Mammosphere (for breast cell lines) or Prostosphere (for prostate cell lines). 100 μL of this suspension was added into each well of 96-well suspension plates and incubated at 37° C., 5% CO2 for 24 hrs. Appropriate concentrations of the drugs (2 μL) were added into respective wells with 100 μL of stem cell culture medium. Plates were incubated at 37° C., 5% CO2 for 72 hrs. After incubation 2.5 μL of the respective drug concentration and 50 μL of stem cell culture medium were added into each well and the plates were further incubated at 37° C., 5% CO2 for 72 hrs. 3 μL of the respective drug concentration was added with 50 μL of stem cell culture medium again after incubation and plates were incubated again for 72 hrs at 37° C., 5% CO2. Number of primary spheres formed for each concentration was counted. A comparative graph of number of spheres formed was plotted against the concentration and the growth curve was compared with the positive control.

normal lymphocytes [5] = assay: Normal cell assay (MTT) on lymphocytes from a healthy donor
Protocol: (§10) In order to test the activity of cytotoxic drugs towards normal cells, we performed MTT
(§11) Assay for these cytotoxic drugs using lymphocytes obtained from a healthy donor.
(§12) Briefly, diluted defibrinated fresh blood was overlaid gradually on HiSeP LSM1077 and centrifuged at low speed for 30 mins. The lymphocyte layer (the buffy coat) (Fig) was carefully removed in a new collection tube. The buffy coat was given another wash, by the diluent buffer, to reduce the platelet contamination. The supernatant was discarded, and the pellet was resuspended in diluent buffer. The viability was checked by Haemocytometer. Cells with Viability and Purity of 95% and more were considered for the assay. MTT assay was performed with these cells as described above with plating efficiency of 0.7 million/ml.

spheres of PC3 = assay: In vitro sphere-forming assay, PC3 in Prostosphere media; assay type: cell-based; conditions: 2000 cells/well, n = 6 ± S.D
Description: as §7, §8
Prostosphere Media Preparation (For 100 mL):1 g methyl cellulose autoclaved with magnetic stirrer, Plain media (Prostate Epithelial Basal Medium), 100 mL added and dissolved, under magnetic stirring. After complete dissolution, add: Insulin-40 μL, B27-2 mL, EGF-80 μL, Penstrep-1 ml.
as §9

normal lymphocytes [6] = tested on: normal lymphocytes
Protocol: as §10, §11, §12

Compound: Cn1cccc1C(=O)Oc1ccc(-c2ccc3c(c2)OCO3)c2ccccc12 [Formula X, 1-(benzo[d][1,3]dioxol-5-yl)naphthalen-4-yl 1-methyl-1H-pyrrole-2-carboxylate]
- IC50 (MCF7): 3.46 µM
- IC50 (MDAMB231 [1]): 3.16 µM
- IC50 (PC3 [2]): 2.6 µM
- IC50 (DU145): 3.28 µM
- IC50 (MDAMB231 [3]): 2.07 µM
- IC50 (PC3 [4]): 2.38 µM
- 3D sphere count of MDAMB231 (spheres of MDAMB231; drug conc 0.025 uM): 39(±4)
- 3D sphere count of MDAMB231 (spheres of MDAMB231; drug conc 0.25 uM): 37(±4)
- 3D sphere count of MDAMB231 (spheres of MDAMB231; drug conc 2.5 uM): 28(±3)
- 3D sphere count of MDAMB231 (spheres of MDAMB231; drug conc 25 uM): 24(±3)
- 3D sphere count of MDAMB231 (spheres of MDAMB231; drug conc 250 uM): 0(±0)
- activity on normal lymphocytes (normal lymphocytes [5]): does not show activity

Compound: COc1cc2c(OC(=O)C(c3ccccc3)C3CCCC3)c3c(c(-c4ccc5c(c4)OCO5)c2cc1OC)C(=O)OC3 (stereo not shown) [Formula VIII, 9-(benzo[d][1,3]dioxol-5-yl)-6,7-dimethoxy-1-oxo-1,3-dihydronaphtho[2,3-c]furan-4-yl 2-cyclopentyl-2-phenylacetate]
- IC50 (MCF7): 1.05 µM
- IC50 (MDAMB231 [1]): 3.14 µM
- IC50 (PC3 [2]): 3.91 µM
- IC50 (DU145): 4.28 µM
- IC50 (MDAMB231 [3]): 1.32 µM
- IC50 (PC3 [4]): 1.96 µM
- 3D sphere count of MDAMB231 (spheres of MDAMB231; drug conc 0.025 uM): 36(±3)
- 3D sphere count of MDAMB231 (spheres of MDAMB231; drug conc 0.25 uM): 29(±4)
- 3D sphere count of MDAMB231 (spheres of MDAMB231; drug conc 2.5 uM): 13(±2)
- 3D sphere count of MDAMB231 (spheres of MDAMB231; drug conc 25 uM): 8(±2)
- 3D sphere count of MDAMB231 (spheres of MDAMB231; drug conc 250 uM): 0(±0)
- 3D sphere count of PC3 (spheres of PC3; drug conc 0.025 uM): 29(±3)
- 3D sphere count of PC3 (spheres of PC3; drug conc 0.25 uM): 24(±3)
- 3D sphere count of PC3 (spheres of PC3; drug conc 2.5 uM): 13(±3)
- 3D sphere count of PC3 (spheres of PC3; drug conc 25 uM): 8(±2)
- 3D sphere count of PC3 (spheres of PC3; drug conc 250 uM): 0(±0)
- activity on normal lymphocytes (normal lymphocytes [5]): does not show activity

Compound: CCOC(=O)c1c(C(=O)OCC)c(-c2ccc3c(c2)OCO3)c2cc(OC)c(OC)cc2c1OC1OC[C@@H](OC)[C@H](OC)[C@H]1O (stereo partly drawn) [Formula VI, diethyl 1-(benzo[d][1,3]dioxol-5-yl)-4-((3R,4R,5R)-3-hydroxy-4,5-dimethoxy-tetrahydro-2H-pyran-2-yloxy)-6,7-dimethoxynaphthalene-2,3-dicarboxylate]
- IC50 (MDAMB231 [1]): 10.1 µM
- IC50 (PC3 [2]): 5.65 µM
- IC50 (MDAMB231 [3]): 14.2 µM
- IC50 (PC3 [4]): 3.25 µM
- 3D sphere count of MDAMB231 (spheres of MDAMB231; drug conc 0.025 uM): 44(±3)
- 3D sphere count of MDAMB231 (spheres of MDAMB231; drug conc 0.25 uM): 36(±2)
- 3D sphere count of MDAMB231 (spheres of MDAMB231; drug conc 2.5 uM): 24(±3)
- 3D sphere count of MDAMB231 (spheres of MDAMB231; drug conc 25 uM): 7(±2)
- 3D sphere count of MDAMB231 (spheres of MDAMB231; drug conc 250 uM): 0(±0)
- 3D sphere count of PC3 (spheres of PC3; drug conc 0.025 uM): 40(±3)
- 3D sphere count of PC3 (spheres of PC3; drug conc 0.25 uM): 28(±2)
- 3D sphere count of PC3 (spheres of PC3; drug conc 2.5 uM): 30(±2)
- 3D sphere count of PC3 (spheres of PC3; drug conc 25 uM): 21(±2)
- 3D sphere count of PC3 (spheres of PC3; drug conc 250 uM): 0(±0)
- activity on normal lymphocytes (normal lymphocytes [5]): does not show activity

Compound: COc1cc2c(OC(=O)c3cccn3C)c3c(c(-c4ccc5c(c4)OCO5)c2cc1OC)C(=O)OC3 [Formula VII, 9-(benzo[d][1,3]dioxol-5-yl)-6,7-dimethoxy-1-oxo-1,3-dihydronaphtho[2,3-c]furan-4-yl 1-methyl-1H-pyrrole-2-carboxylate]
- IC50 (MCF7): 2.78 µM
- IC50 (MDAMB231 [1]): 2.04 µM
- IC50 (PC3 [2]): 6.32 µM
- IC50 (DU145): 3.57 µM
- IC50 (MDAMB231 [3]): 7.91 µM
- IC50 (PC3 [4]): 0.36 µM
- 3D sphere count of MDAMB231 (spheres of MDAMB231; drug conc 0.025 uM): 47(±4)
- 3D sphere count of MDAMB231 (spheres of MDAMB231; drug conc 0.25 uM): 46(±7)
- 3D sphere count of MDAMB231 (spheres of MDAMB231; drug conc 2.5 uM): 40(±7)
- 3D sphere count of MDAMB231 (spheres of MDAMB231; drug conc 25 uM): 40(±3)
- 3D sphere count of MDAMB231 (spheres of MDAMB231; drug conc 250 uM): 0(±0)
- 3D sphere count of PC3 (spheres of PC3; drug conc 0.025 uM): 64(±8)
- 3D sphere count of PC3 (spheres of PC3; drug conc 0.25 uM): 31(±5)
- 3D sphere count of PC3 (spheres of PC3; drug conc 2.5 uM): 23(±3)
- 3D sphere count of PC3 (spheres of PC3; drug conc 25 uM): 9(±2)
- 3D sphere count of PC3 (spheres of PC3; drug conc 250 uM): 0(±0)
- activity on normal lymphocytes (normal lymphocytes [5]): does not show activity

Compound: CO[C@H]1[C@H](OC)COC(Oc2ccc(-c3ccc4c(c3)OCO4)c3ccccc23)[C@@H]1O (stereo partly drawn) [Formula V, (3R,4R,5R)-2-(4-(benzo[d][1,3]dioxol-5-yl)naphthalen-1-yloxy)-4,5-dimethoxy-tetrahydro-2H-pyran-3-ol]
- IC50 (MDAMB231 [1]): 4.61 µM
- IC50 (PC3 [2]): 6.19 µM
- IC50 (MDAMB231 [3]): 3.45 µM
- IC50 (PC3 [4]): 10.6 µM
- 3D sphere count of MDAMB231 (spheres of MDAMB231; drug conc 0.025 uM): 40(±3)
- 3D sphere count of MDAMB231 (spheres of MDAMB231; drug conc 0.25 uM): 24(±3)
- 3D sphere count of MDAMB231 (spheres of MDAMB231; drug conc 2.5 uM): 12(±1)
- 3D sphere count of MDAMB231 (spheres of MDAMB231; drug conc 25 uM): 7(±2)
- 3D sphere count of MDAMB231 (spheres of MDAMB231; drug conc 250 uM): 0(±0)
- 3D sphere count of PC3 (spheres of PC3; drug conc 0.025 uM): 50(±5)
- 3D sphere count of PC3 (spheres of PC3; drug conc 0.25 uM): 40(±5)
- 3D sphere count of PC3 (spheres of PC3; drug conc 2.5 uM): 36(±3)
- 3D sphere count of PC3 (spheres of PC3; drug conc 25 uM): 21(±4)
- 3D sphere count of PC3 (spheres of PC3; drug conc 250 uM): 0(±0)
- activity on normal lymphocytes (normal lymphocytes [6]): does not show activity
